Source: patent US10696651B2, “Heterocyclic compound” (Takeda Pharmaceutical Company Limited, priority 2016, dated 2020)

Assays:
[1] = biological target: T1, human GCN2 full-length protein (Homo sapiens, UniProt Q9P2K8); assay: GCN2 enzyme inhibition assay (LanthaScreen TR-FRET); assay type: biochemical; details: GCN2 enzyme inhibitory activity at compound concentration of 3 μM; for inhibitory rate: 3 µM; for inhibition at 3 µM: read-out: inhibitory rate
T1 construct: purchased Carna Biosciences, Inc
T1 sequence (Q9P2K8 whole entry): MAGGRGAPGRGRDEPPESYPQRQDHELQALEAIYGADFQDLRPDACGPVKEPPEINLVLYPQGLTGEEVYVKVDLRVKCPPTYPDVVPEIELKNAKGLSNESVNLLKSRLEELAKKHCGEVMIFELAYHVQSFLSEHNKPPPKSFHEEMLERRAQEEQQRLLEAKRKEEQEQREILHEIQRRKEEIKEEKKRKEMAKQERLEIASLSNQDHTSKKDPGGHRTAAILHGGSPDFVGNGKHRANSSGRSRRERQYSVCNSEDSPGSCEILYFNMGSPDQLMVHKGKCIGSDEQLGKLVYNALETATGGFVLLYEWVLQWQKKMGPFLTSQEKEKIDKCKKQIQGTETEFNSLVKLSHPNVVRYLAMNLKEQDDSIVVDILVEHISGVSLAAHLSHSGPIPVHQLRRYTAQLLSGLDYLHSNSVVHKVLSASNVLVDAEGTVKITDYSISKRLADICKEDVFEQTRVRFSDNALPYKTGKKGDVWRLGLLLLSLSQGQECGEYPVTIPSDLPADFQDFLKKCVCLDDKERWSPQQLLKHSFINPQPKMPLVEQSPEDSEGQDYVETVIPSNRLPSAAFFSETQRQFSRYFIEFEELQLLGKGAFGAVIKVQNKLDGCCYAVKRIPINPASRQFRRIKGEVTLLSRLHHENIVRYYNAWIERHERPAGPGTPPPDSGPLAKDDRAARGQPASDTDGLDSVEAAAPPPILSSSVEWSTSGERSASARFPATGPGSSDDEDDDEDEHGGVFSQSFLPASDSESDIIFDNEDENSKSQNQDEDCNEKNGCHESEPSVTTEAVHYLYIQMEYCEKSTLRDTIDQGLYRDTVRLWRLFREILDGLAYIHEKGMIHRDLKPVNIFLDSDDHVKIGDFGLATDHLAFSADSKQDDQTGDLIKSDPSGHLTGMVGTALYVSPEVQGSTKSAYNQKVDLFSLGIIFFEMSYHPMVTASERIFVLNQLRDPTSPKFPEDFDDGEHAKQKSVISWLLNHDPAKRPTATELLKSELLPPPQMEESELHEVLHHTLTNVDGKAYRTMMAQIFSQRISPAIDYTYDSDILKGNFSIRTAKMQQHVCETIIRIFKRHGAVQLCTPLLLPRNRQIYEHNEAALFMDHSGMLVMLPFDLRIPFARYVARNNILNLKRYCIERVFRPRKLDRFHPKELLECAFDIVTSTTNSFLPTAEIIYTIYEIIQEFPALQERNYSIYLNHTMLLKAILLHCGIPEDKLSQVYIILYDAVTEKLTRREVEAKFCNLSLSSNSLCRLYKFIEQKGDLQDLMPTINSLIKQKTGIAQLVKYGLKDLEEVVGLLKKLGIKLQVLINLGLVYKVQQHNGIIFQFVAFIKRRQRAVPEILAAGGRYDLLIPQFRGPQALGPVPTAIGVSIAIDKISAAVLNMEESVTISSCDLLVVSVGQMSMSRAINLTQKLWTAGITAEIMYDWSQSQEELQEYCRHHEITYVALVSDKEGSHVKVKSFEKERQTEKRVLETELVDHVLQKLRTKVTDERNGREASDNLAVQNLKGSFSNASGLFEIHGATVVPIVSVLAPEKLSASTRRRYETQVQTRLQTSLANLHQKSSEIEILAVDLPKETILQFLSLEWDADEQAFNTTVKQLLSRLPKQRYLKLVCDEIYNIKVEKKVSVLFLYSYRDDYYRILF
Procedure, shortened: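 Full-length human GCN2 was preincubated with compound for 1 hr at room temperature, then reacted for 1 hr with substrate and ATP added from a 570 μM ATP / 390 nM substrate solution (stock concentrations). Phosphorylation was detected by TR-FRET with a terbium-labelled anti-eIF2alpha antibody after 1 hr, with enzyme-free wells as control.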

[2] = test system: osteosarcoma cell line U-2-OS; assay: In vitro cell proliferation inhibition assay (CellTiter-Glo, low amino acid media); assay type: cell-based; details: McCoy's 5A low amino acid media; for inhibitory rate: 72 hr; for inhibition at 0.1 µM: Homo sapiens, U2OS, 72 h, cell proliferation inhibitory rate
Method: A cell suspension (40 μL) (1000 cells/well) of osteosarcoma cell line U-2-OS obtained from ATCC (American Type Culture Collection) was seeded on a 384 plate using McCoy's 5A low amino acid media (amino acid content 25%). The seeded cells were incubated (37° C., 5% CO2) overnight to 24 hr at the longest. Each example compound was dissolved (10 mM) in DMSO, delivered to wells by using TECAN HP D300 (TECAN), and the plate was incubated for 72 hr (37° C., 5% CO2). A well without addition of compound was treated similarly as a control group. Celltiter-Glo (registered trade mark) Luminescent Cell Viability Assay reagent (Promega KK) equilibrated at room temperature was added (40 μL/well) to cells in each well before compound treatment (untreated group) and 72 hours after compound treatment. After incubation for 10 min, cell proliferation inhibitory rate was measured by the amount of ATP which is a cell viability marker. Luminescence of cells showing ATP amount was measured using ARVO MX (PerkinElmer). Based on the luminescence values of the untreatment group, the control group without addition of Example compound solution, and the treatment group with addition of Example compound, the cell proliferation inhibitory rate (%) of the test compound at a compound concentration of 100 nM was calculated by the following formula and the results thereof are shown in Tables 4-1, 4-2. Inhibitory rate (%)=(1−(luminescence value of treatment group−luminescence value of untreatment group)÷(luminescence value of control group−luminescence value of untreatment group))×100

[3] = test system: ATF4 expression in CCRF-CEM tumor; assay: In vivo ATF4 expression suppression assay (Western blot of CCRF-CEM xenograft tumor) in the presence of L-asparaginase; details: compound 10 mg/kg oral 8 hr before tumor removal, L-asparaginase 1000 U/kg s.c. 32 hr and 8 hr before, CCRF-CEM xenograft in SCID mouse
Source text: One million human acute lymphoblastic leukemia cell lines CCRF-CEM obtained from ATCC (American Type Culture Collection) were suspended in Matrigel solution (Corning) and implanted subcutaneously into 6-week-old female SCID mouse (CLEA Japan, Inc.) by injection. The mice in which the tumor engrafted to a size of about 200-1000 mm^3 tumor volume after transplantation were selected and 3 mice per group were used for the experiment. L-asparaginase (Kyowa Hakko Kogyo Co., Ltd.) was subcutaneously administered at a dose of 1000 U/kg 32 hr and 8 hr before tumor removal. A 0.5% methylcellulose suspension of the compound was orally administered at a dose of 10 mg/kg 8 hr before tumor removal. After tumor removal, protein was extracted using Lysing Matrix I tube (MP Biomedicals) containing a protein extract (10% glycerol, 1% sodium dodecyl sulfate, 62.5 mM Tris-HCl [pH 7.5], protease and phosphatase inhibitors [Complete mini and PhosSTOP, Sigma-Aldrich Co. LLC.]) and subjected to Western blot.
Protein extract solution was subjected to protein quantification with BCA Protein Assay Kit (Thermo Scientific), electrophoresed on 7.5-15% SDS-PAGE gel (DRC), and protein in the gel was transferred to PVDF membrane. The membrane was blocked with Starting Block T20 (PBS) Blocking Buffer (Thermo Scientific). […] Thereafter, chemiluminescence was performed using ImmunoStar LD (Wako Pure Chemical Industries, Ltd.), and luminescence intensity was measured by LAS-3000 image analyzer (Fuji Film Co., Ltd.). Furthermore, the expression level of ATF4 was digitized by quantifying the luminescence intensity using Multi Gauge Ver. […]
Based on the ATF4 expression level of the control group orally administered with 0.5% methylcellulose suspension free of Example compound and the treatment group orally administered with Example compound suspension, the ATF4 expression inhibition ratio (%) of the test compound at a compound dose 10 mg/kg was calculated by the following formula and the results thereof are shown in Table 6. […]

[4] = test system: human acute lymphoblastic leukemia cells CCRF-CEM; assay: In vivo tumor proliferation inhibitory assay with combined use of asparaginase (CCRF-CEM xenograft); details: CCRF-CEM xenograft in SCID mouse
Source text: One million human acute lymphoblastic leukemia cells CCRF-CEM obtained from ATCC (American Type Culture Collection) were suspended in Matrigel solution (Corning) and implanted subcutaneously into 6-week-old female SCID mouse (CLEA Japan, Inc.) by injection. The mice in which the tumor engrafted to a size of about 200 mm^3 tumor volume after transplantation were selected and 5 mice per group were used for the experiment. A 0.5% methylcellulose suspension of the compound was orally administered twice per day for 9 days. Each compound was administered twice per day and the dose was 10 mg/kg for Example 14 and Example 7, and 6 mg/kg for Example 4. L-asparaginase (Kyowa Hakko Kogyo Co., Ltd.) was subcutaneously administered once per day at a dose of 1000 U/kg. Tumor diameter was measured one day before start of the administration and day 9 of the administration, and the tumor volume was calculated by the formula 1. tumor volume=major axis×minor axis×minor axis×(½) Formula 1
Tumor proliferation inhibitory rate (%) was calculated by the formula 2. tumor proliferation inhibitory rate (%)=(1−(T9−T0)/(C9−C0))×100 Formula 2 T9: average tumor volume of test drug administration group on day 9 of administration, T0: average tumor volume of test drug administration group one day before start of administration, C9: average tumor volume of control group on day 9 of administration, C0: average tumor volume of control group one day before start of administration

Row | inhibition at 3 µM ([1]; Table 3-2) [%] | SMILES | inhibition at 0.1 µM ([2]; Table 4-2) [%] | inhibitory rate ([2]; Table 4-2) [%] | further results
1 |  | O=S(=O)(Nc1ccc(F)c(C#Cc2cnc3[nH]ncc3c2)c1F)c1cc(Cl)ccc1Cl [Example 14, 2,5-dichloro-N-(2,4-difluoro-3-(1H-pyrazolo[3,4-b]pyridin-5-ylethynyl)phenyl)benzenesulfonamide] |  |  | inhibitory rate ([1]; Table 3-1): 98%; inhibitory rate ([2]; Table 4-1): 42%; in vivo ATF4 expression inhibition ratio (%) [3]: 63%; in vivo tumor proliferation inhibitory rate (%), GCN2 inhibitor ([4]; GCN2 inhibitor alone, 10 mg/kg oral twice per day for 9 days): 1%; in vivo tumor proliferation inhibitory rate (%), combined use ([4]; compound 10 mg/kg oral twice per day for 9 days combined with L-asparaginase 1000 U/kg s.c. once per day): 64%
2 | 102 | CNc1ncc(Cl)cc1S(=O)(=O)Nc1ccc(F)c(C#Cc2cnc(N[C@H]3CC[C@H](O)CC3)nc2)c1F [Example 182, 5-chloro-N-(2,4-difluoro-3-((2-((trans-4-hydroxycyclohexyl)amino)pyrimidin-5-yl)ethynyl)phenyl)-2-(methylamino)pyridine-3-sulfonamide] | 71 |  | 
3 | 103 | CNc1ncc(Cl)cc1S(=O)(=O)Nc1ccc(F)c(C#Cc2cnc(N[C@H](C)CO)nc2)c1F [Example 183, 5-chloro-N-(2,4-difluoro-3-((2-(((2R)-1-hydroxypropan-2-yl)amino)pyrimidin-5-yl)ethynyl)phenyl)-2-(methylamino)pyridine-3-sulfonamide] | 77 |  | 
4 | 99 | C[C@H](CO)Nc1ncc(C#Cc2c(F)ccc(NS(=O)(=O)c3cc(Cl)cc4c3OCC4O)c2F)cn1 (stereo partly drawn) [Example 184, 5-chloro-N-(2,4-difluoro-3-((2-(((2R)-1-hydroxypropan-2-yl)amino)pyrimidin-5-yl)ethynyl)phenyl)-3-hydroxy-2,3-dihydro-1-benzofuran-7-sulfonamide] |  | 59 | 
5 | 100 | O=S(=O)(Nc1ccc(F)c(C#Cc2cnc(N[C@H]3CC[C@H](O)CC3)nc2)c1F)c1cc(Cl)cc2c1OCC2O (stereo partly drawn) [Example 185, 5-chloro-N-(2,4-difluoro-3-((2-((trans-4-hydroxycyclohexyl)amino)pyrimidin-5-yl)ethynyl)phenyl)-3-hydroxy-2,3-dihydro-1-benzofuran-7-sulfonamide] | 56 |  | 
6 |  | C[C@H](CO)Nc1ncc(C#Cc2c(F)ccc(NS(=O)(=O)c3cc(Cl)cc4c3OCC4O)c2F)cn1 (stereo partly drawn) [Example 186, 5-chloro-N-(2,4-difluoro-3-((2-(((2R)-1-hydroxypropan-2-yl)amino)pyrimidin-5-yl)ethynyl)phenyl)-3-hydroxy-2,3-dihydro-1-benzofuran-7-sulfonamide] |  | 43 | inhibitory rate ([1]; Table 3-2): 100%
7 | 100 | Cc1ncc(Cl)cc1S(=O)(=O)Nc1ccc(F)c(C#Cc2cnc(N[C@H]3CC[C@H](O)CC3)nc2)c1F [Example 188, 5-chloro-N-(2,4-difluoro-3-((2-((trans-4-hydroxycyclohexyl)amino)pyrimidin-5-yl)ethynyl)phenyl)-2-methylpyridine-3-sulfonamide] | 77 |  | 
8 | 99 | Cc1ncc(Cl)cc1S(=O)(=O)Nc1ccc(F)c(C#Cc2cnc(N[C@H](C)CO)nc2)c1F [Example 189, 5-chloro-N-(2,4-difluoro-3-((2-(((2R)-1-hydroxypropan-2-yl)amino)pyrimidin-5-yl)ethynyl)phenyl)-2-methylpyridine-3-sulfonamide] | 79 |  | 
9 |  | O=S(=O)(Nc1ccc(F)c(C#Cc2cnc(N[C@H]3CC[C@H](O)CC3)nc2)c1F)c1cc(Cl)cc2c1OCC2O (stereo partly drawn) [Example 190, 5-chloro-N-(2,4-difluoro-3-((2-((trans-4-hydroxycyclohexyl)amino)pyrimidin-5-yl)ethynyl)phenyl)-3-hydroxy-2,3-dihydro-1-benzofuran-7-sulfonamide] |  | 65 | inhibitory rate ([1]; Table 3-2): 99%
10 |  | O=S(=O)(Nc1ccc(F)c(C#Cc2cnc(N[C@H]3CC[C@H](O)CC3)nc2)c1F)c1cc(Cl)cc2c1OCC2O (stereo partly drawn) [Example 191, 5-chloro-N-(2,4-difluoro-3-((2-((trans-4-hydroxycyclohexyl)amino)pyrimidin-5-yl)ethynyl)phenyl)-3-hydroxy-2,3-dihydro-1-benzofuran-7-sulfonamide] |  | 74 | inhibitory rate ([1]; Table 3-2): 99%
11 | 98 | Cc1ncc(Cl)cc1S(=O)(=O)Nc1ccc(F)c(C#Cc2cnc(N[C@@H](C)CO)nc2)c1F [Example 193, 5-chloro-N-(2,4-difluoro-3-((2-(((2S)-1-hydroxypropan-2-yl)amino)pyrimidin-5-yl)ethynyl)phenyl)-2-methylpyridine-3-sulfonamide] | 64 |  | 
